From ChEMBL document CHEMBL4507311, “Data for DCP probe A-1155463” (2021)

Tests used:
[1] = target: 5-hydroxytryptamine receptor 3A (Homo sapiens, UniProt P46098); assay: GPCRScan assay: inhibition of 5-HT3; design: radioligand conc. used [nm] 1.0 – 2.0, parental cells HEKT
[2] = target: Activin receptor type-1 (Homo sapiens) (UniProt Q04771); conditions: Compound concentration 1000.0 nM
[3] = target: Mitogen-activated protein kinase kinase kinase 5 (Homo sapiens) (UniProt Q99683); conditions: Compound concentration 1000.0 nM
[4] = target: Aurora kinase A (Homo sapiens) (UniProt O14965); conditions: Compound concentration 1000.0 nM
[5] = target: Bone morphogenetic protein receptor type-1B (Homo sapiens) (UniProt O00238); conditions: Compound concentration 1000.0 nM
[6] = target: Calcium/calmodulin-dependent protein kinase type 1B (Homo sapiens) (UniProt Q6P2M8); conditions: Compound concentration 1000.0 nM
[7] = target: Calcium/calmodulin-dependent protein kinase kinase 2 (Homo sapiens) (UniProt Q96RR4); conditions: Compound concentration 1000.0 nM
[8] = target: Cyclin-dependent kinase 2 (Homo sapiens) (UniProt P24941); conditions: Compound concentration 1000.0 nM
[9] = target: Cyclin-dependent kinase 9 (Homo sapiens) (UniProt P50750); conditions: Compound concentration 1000.0 nM
[10] = target: Casein kinase I isoform gamma-2 (Homo sapiens) (UniProt P78368); conditions: Compound concentration 1000.0 nM
[11] = target: Casein kinase I isoform gamma-3 (Homo sapiens) (UniProt Q9Y6M4); conditions: Compound concentration 1000.0 nM
[12] = target: Death-associated protein kinase 1 (Homo sapiens) (UniProt P53355); conditions: Compound concentration 1000.0 nM
[13] = target: Serine/threonine-protein kinase DCLK1 (Homo sapiens) (UniProt O15075); conditions: Compound concentration 1000.0 nM
[14] = target: Myotonin-protein kinase (Homo sapiens) (UniProt Q09013); conditions: Compound concentration 1000.0 nM
[15] = target: Serine/threonine-protein kinase MRCK gamma (Homo sapiens) (UniProt Q6DT37); conditions: Compound concentration 1000.0 nM
[16] = tested on: Epidermal growth factor receptor (Homo sapiens), P00533 [G719C]; conditions: Compound concentration 1000.0 nM
[17] = target: Tyrosine-protein kinase JAK1 (Homo sapiens) (UniProt P23458); conditions: Compound concentration 1000.0 nM
[18] = tested on: Mast/stem cell growth factor receptor Kit (Homo sapiens), P10721 [D816H]; conditions: Compound concentration 1000.0 nM
[19] = tested on: Mast/stem cell growth factor receptor Kit (Homo sapiens), P10721 [D816V]; conditions: Compound concentration 1000.0 nM
[20] = tested on: Mast/stem cell growth factor receptor Kit (Homo sapiens), P10721 [L576P]; conditions: Compound concentration 1000.0 nM
[21] = tested on: Mast/stem cell growth factor receptor Kit (Homo sapiens), P10721 [V559D]; conditions: Compound concentration 1000.0 nM
[22] = tested on: Mast/stem cell growth factor receptor Kit (Homo sapiens), P10721 [V559D,V654A]; conditions: Compound concentration 1000.0 nM
[23] = target: Mast/stem cell growth factor receptor Kit (Homo sapiens) (UniProt P10721); conditions: Compound concentration 1000.0 nM
[24] = target: Serine/threonine-protein kinase LATS1 (Homo sapiens) (UniProt O95835); conditions: Compound concentration 1000.0 nM
[25] = target: Serine/threonine-protein kinase 10 (Homo sapiens) (UniProt O94804); conditions: Compound concentration 1000.0 nM
[26] = target: Mitogen-activated protein kinase kinase kinase 15 (Homo sapiens) (UniProt Q6ZN16); conditions: Compound concentration 1000.0 nM
[27] = target: Mitogen-activated protein kinase kinase kinase 11 (Homo sapiens) (UniProt Q16584); conditions: Compound concentration 1000.0 nM
[28] = target: Macrophage-stimulating protein receptor (Homo sapiens) (UniProt Q04912); conditions: Compound concentration 1000.0 nM
[29] = target: Serine/threonine-protein kinase mTOR (Homo sapiens) (UniProt P42345); conditions: Compound concentration 1000.0 nM
[30] = target: Serine/threonine-protein kinase Nek6 (Homo sapiens) (UniProt Q9HC98); conditions: Compound concentration 1000.0 nM
[31] = target: Mitogen-activated protein kinase kinase kinase 14 (Homo sapiens) (UniProt Q99558); conditions: Compound concentration 1000.0 nM
[32] = target: Phosphatidylinositol 4-phosphate 3-kinase C2 domain-containing subunit beta (Homo sapiens) (UniProt O00750); conditions: Compound concentration 1000.0 nM
[33] = tested on: Phosphatidylinositol 4,5-bisphosphate 3-kinase catalytic subunit alpha isoform (Homo sapiens), P42336 [H1047Y]; conditions: Compound concentration 1000.0 nM
[34] = tested on: Phosphatidylinositol 4,5-bisphosphate 3-kinase catalytic subunit alpha isoform (Homo sapiens), P42336 [I800L]; conditions: Compound concentration 1000.0 nM
[35] = target: 1-phosphatidylinositol 3-phosphate 5-kinase (Homo sapiens) (UniProt Q9Y2I7); conditions: Compound concentration 1000.0 nM
[36] = target: Membrane-associated tyrosine- and threonine-specific cdc2-inhibitory kinase (Homo sapiens) (UniProt Q99640); conditions: Compound concentration 1000.0 nM
[37] = target: Protein kinase C delta type (Homo sapiens) (UniProt Q05655); conditions: Compound concentration 1000.0 nM
[38] = tested on: Proto-oncogene tyrosine-protein kinase receptor Ret (Homo sapiens), P07949 [M918T]; conditions: Compound concentration 1000.0 nM
[39] = target: NUAK family SNF1-like kinase 2 (Homo sapiens) (UniProt Q9H093); conditions: Compound concentration 1000.0 nM
[40] = target: Tyrosine-protein kinase SYK (Homo sapiens) (UniProt P43405); conditions: Compound concentration 1000.0 nM
[41] = target: Serine/threonine-protein kinase TAO2 (Homo sapiens) (UniProt Q9UL54); conditions: Compound concentration 1000.0 nM
[42] = target: Tyrosine-protein kinase receptor TYRO3 (Homo sapiens) (UniProt Q06418); conditions: Compound concentration 1000.0 nM
[43] = target: D(4) dopamine receptor (Homo sapiens) (UniProt P21917); conditions: Compound concentration 10.0 uM
[44] = target: Histamine H1 receptor (Homo sapiens) (UniProt P35367); conditions: Compound concentration 10.0 uM
[45] = target: Histamine H4 receptor (Homo sapiens) (UniProt Q9H3N8); conditions: Compound concentration 10.0 uM

5-hydroxytryptamine receptor 3A, sequence (P46098 whole entry): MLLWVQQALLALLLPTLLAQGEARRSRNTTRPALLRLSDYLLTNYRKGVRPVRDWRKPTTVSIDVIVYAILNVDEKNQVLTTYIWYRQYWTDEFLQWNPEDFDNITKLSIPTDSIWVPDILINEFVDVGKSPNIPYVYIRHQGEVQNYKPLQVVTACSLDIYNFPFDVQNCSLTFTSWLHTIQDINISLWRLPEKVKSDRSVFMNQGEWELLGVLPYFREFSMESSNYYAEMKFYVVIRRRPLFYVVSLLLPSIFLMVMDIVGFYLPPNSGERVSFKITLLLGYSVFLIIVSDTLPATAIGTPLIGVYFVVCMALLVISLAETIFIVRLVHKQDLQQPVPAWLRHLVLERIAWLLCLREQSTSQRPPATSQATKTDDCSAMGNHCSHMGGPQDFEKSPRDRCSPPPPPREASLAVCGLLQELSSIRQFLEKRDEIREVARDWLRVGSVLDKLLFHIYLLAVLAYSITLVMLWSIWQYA
Aurora kinase A (Homo sapiens), sequence (O14965 whole entry): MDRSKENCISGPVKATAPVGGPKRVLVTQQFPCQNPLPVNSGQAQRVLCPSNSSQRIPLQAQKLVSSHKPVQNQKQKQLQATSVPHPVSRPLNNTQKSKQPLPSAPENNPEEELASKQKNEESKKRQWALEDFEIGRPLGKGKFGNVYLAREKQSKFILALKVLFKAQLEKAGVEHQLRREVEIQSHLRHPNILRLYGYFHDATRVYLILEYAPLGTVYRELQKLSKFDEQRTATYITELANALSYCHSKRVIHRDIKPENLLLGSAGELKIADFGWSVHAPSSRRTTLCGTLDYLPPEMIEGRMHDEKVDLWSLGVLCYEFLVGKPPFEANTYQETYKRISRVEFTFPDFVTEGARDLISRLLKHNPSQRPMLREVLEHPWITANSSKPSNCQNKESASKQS
Serine/threonine-protein kinase LATS1 (Homo sapiens), sequence (O95835 whole entry): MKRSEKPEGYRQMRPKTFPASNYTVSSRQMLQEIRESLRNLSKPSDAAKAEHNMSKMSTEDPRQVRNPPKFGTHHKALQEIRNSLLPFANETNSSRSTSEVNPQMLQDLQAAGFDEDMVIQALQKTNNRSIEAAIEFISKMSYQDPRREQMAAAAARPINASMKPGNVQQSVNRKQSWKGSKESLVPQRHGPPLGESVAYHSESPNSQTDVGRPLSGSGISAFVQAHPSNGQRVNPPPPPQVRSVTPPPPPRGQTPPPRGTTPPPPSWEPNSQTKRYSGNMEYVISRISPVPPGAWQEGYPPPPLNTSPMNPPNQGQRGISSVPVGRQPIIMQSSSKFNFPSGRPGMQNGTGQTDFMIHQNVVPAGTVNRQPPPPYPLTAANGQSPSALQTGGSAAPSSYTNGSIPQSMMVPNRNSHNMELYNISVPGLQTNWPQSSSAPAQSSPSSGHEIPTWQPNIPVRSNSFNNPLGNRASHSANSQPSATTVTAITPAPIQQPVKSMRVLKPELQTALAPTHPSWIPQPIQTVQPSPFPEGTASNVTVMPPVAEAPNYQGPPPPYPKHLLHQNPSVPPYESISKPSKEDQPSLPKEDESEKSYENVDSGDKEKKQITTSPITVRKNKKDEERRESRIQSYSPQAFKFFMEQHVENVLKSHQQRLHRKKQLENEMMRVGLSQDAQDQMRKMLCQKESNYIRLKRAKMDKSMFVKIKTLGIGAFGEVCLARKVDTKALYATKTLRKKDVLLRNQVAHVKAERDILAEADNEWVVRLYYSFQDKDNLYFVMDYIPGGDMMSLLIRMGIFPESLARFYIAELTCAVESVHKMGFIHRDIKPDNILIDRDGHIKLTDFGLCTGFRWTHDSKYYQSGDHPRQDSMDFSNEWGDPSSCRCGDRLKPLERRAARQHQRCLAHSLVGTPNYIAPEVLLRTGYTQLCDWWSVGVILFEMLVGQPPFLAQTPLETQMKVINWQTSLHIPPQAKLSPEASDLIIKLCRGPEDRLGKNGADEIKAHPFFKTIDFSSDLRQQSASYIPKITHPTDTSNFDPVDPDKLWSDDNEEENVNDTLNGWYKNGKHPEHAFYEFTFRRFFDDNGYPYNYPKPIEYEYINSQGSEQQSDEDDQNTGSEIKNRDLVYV
Calcium/calmodulin-dependent protein kinase kinase 2 (Homo sapiens), sequence (Q96RR4 2-588 limits assumed): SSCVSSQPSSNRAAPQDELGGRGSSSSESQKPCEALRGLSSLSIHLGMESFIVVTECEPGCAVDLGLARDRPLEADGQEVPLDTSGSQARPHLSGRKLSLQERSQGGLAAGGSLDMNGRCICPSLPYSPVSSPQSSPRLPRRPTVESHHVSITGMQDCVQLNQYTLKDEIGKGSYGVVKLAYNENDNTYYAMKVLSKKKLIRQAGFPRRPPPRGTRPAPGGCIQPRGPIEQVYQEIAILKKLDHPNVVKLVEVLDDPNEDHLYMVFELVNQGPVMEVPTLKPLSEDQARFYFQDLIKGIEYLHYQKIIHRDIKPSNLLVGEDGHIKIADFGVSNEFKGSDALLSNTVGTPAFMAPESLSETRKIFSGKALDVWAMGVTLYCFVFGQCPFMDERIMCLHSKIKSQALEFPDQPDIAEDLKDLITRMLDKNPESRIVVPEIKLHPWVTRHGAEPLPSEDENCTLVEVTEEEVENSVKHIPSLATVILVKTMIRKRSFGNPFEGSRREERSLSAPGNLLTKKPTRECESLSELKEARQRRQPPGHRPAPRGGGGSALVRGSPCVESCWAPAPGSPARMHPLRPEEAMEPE
Casein kinase I isoform gamma-3 (Homo sapiens), sequence (Q9Y6M4 whole entry, looked up, canonical isoform): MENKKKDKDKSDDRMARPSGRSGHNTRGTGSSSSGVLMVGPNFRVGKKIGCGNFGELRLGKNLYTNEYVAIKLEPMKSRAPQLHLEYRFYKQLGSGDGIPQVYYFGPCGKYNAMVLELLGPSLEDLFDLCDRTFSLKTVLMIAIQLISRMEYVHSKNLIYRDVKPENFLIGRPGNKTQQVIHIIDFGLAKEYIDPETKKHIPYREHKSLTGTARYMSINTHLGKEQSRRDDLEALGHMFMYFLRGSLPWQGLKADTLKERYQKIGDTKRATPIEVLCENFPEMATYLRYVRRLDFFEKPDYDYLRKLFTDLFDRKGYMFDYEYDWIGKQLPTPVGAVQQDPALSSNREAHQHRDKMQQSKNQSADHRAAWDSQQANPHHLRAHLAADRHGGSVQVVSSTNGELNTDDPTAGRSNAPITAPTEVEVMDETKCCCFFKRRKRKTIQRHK
Mast/stem cell growth factor receptor Kit (Homo sapiens), P10721 [V559D,V654A], sequence (P10721 whole entry V559D/V654A): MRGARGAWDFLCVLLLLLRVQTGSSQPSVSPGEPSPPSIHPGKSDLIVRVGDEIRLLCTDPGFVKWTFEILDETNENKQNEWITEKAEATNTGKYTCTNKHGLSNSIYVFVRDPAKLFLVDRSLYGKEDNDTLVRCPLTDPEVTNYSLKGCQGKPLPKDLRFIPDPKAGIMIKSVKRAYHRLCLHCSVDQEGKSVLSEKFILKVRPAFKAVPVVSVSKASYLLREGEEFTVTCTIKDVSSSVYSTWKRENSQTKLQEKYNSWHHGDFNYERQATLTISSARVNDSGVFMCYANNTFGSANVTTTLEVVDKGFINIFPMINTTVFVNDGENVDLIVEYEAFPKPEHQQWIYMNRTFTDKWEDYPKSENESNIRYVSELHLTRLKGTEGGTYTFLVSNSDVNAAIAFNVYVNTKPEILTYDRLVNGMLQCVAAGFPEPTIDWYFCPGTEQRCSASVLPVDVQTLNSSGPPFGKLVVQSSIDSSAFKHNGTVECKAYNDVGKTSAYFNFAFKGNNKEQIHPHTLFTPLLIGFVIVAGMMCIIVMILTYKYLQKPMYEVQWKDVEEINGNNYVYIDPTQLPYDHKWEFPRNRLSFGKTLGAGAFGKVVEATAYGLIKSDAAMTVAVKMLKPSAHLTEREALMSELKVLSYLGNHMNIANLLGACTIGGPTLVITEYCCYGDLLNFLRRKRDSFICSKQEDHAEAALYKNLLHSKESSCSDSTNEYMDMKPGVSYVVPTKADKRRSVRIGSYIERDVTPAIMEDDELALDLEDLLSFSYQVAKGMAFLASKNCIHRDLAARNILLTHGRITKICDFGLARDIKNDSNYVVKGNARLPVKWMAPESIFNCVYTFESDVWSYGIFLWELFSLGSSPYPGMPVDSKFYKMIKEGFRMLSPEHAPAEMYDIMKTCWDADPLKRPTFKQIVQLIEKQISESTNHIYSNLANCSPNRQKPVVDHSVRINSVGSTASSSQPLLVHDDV
Mast/stem cell growth factor receptor Kit (Homo sapiens), P10721 [D816V], sequence (P10721 whole entry D816V): as the sequence (P10721 whole entry V559D/V654A) above, with D559V, A654V, D816V counted along it

Question: How did the Ki ([1]; read-out: Ki) turn out when `CN(C)CC#Cc1ccc(OCCCc2sc(N3CCc4cccc(C(=O)Nc5nc6ccccc6s5)c4C3)nc2C(=O)O)c(F)c1` [A-1155463] was run?
Answer: Its Ki is 1140 nM.

Question: And the Ki ([1]; read-out: pKi (converted))?
Answer: The Ki was 1070 nM.

Question: What about the residual activity [2] of the same compound?
Answer: Its residual activity is 100%.

Question: What about the residual activity [3] of the same compound?
Answer: Its residual activity is 94%.

Question: And the residual activity [4]?
Answer: Its residual activity is 92%.

Question: What about the residual activity [5] of the same compound?
Answer: Its residual activity is 84%.

Question: What about the residual activity [6] of the same compound?
Answer: Its residual activity is 100%.

Question: What about the residual activity [7] of the same compound?
Answer: Its residual activity is 100%.

Question: What about the residual activity [8] of the same compound?
Answer: The residual activity was 100%.

Question: And the residual activity [9]?
Answer: The residual activity was 94%.

Question: What about the residual activity [10] of the same compound?
Answer: Its residual activity is 92%.

Question: And the residual activity [11]?
Answer: The residual activity was 100%.

Question: And the residual activity [12]?
Answer: The residual activity was 91%.

Question: What about the residual activity [13] of the same compound?
Answer: Its residual activity is 72%.

Question: What about the residual activity [14] of the same compound?
Answer: Its residual activity is 100%.

Question: What about the residual activity [15] of the same compound?
Answer: The residual activity was 90%.

Question: What about the residual activity [16] of the same compound?
Answer: The residual activity was 91%.

Question: What about the residual activity [17] of the same compound?
Answer: Its residual activity is 100%.

Question: What about the residual activity [18] of the same compound?
Answer: Its residual activity is 71%.

Question: And the residual activity [19]?
Answer: The residual activity was 100%.

Question: What about the residual activity [20] of the same compound?
Answer: Its residual activity is 95%.

Question: And the residual activity [21]?
Answer: Its residual activity is 96%.

Question: And the residual activity [22]?
Answer: The residual activity was 78%.

Question: What about the residual activity [23] of the same compound?
Answer: The residual activity was 85%.

Question: What about the residual activity [24] of the same compound?
Answer: The residual activity was 76%.

Question: What about the residual activity [25] of the same compound?
Answer: The residual activity was 100%.

Question: And the residual activity [26]?
Answer: The residual activity was 99%.

Question: And the residual activity [27]?
Answer: The residual activity was 100%.

Question: And the residual activity [28]?
Answer: Its residual activity is 99%.

Question: What about the residual activity [29] of the same compound?
Answer: The residual activity was 100%.

Question: What about the residual activity [30] of the same compound?
Answer: The residual activity was 100%.

Question: What about the residual activity [31] of the same compound?
Answer: The residual activity was 100%.

Question: And the residual activity [32]?
Answer: The residual activity was 100%.

Question: What about the residual activity [33] of the same compound?
Answer: Its residual activity is 100%.

Question: And the residual activity [34]?
Answer: Its residual activity is 75%.

Question: And the residual activity [35]?
Answer: Its residual activity is 100%.

Question: What about the residual activity [36] of the same compound?
Answer: The residual activity was 71%.

Question: What about the residual activity [37] of the same compound?
Answer: Its residual activity is 100%.

Question: And the residual activity [38]?
Answer: Its residual activity is 100%.

Question: What about the residual activity [39] of the same compound?
Answer: The residual activity was 82%.

Question: And the residual activity [40]?
Answer: The residual activity was 100%.

Question: What about the residual activity [41] of the same compound?
Answer: Its residual activity is 100%.

Question: What about the residual activity [42] of the same compound?
Answer: The residual activity was 94%.

Question: What about the inhibition [43] of the same compound?
Answer: The inhibition was -3.48%.

Question: And the inhibition [44]?
Answer: Its inhibition is 39.8%.

Question: What about the inhibition [45] of the same compound?
Answer: Its inhibition is 6.5%.
